Experiment [1] in a line: intracellular Trypanosoma cruzi inhibitors in host cells – cell-based, plate reader, cherry-pick samples, set 3, dose response (AID 651818).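 Note: compounds incubated with infected cells for about four days.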 The format is functional.
Experiment [2] concerns the target T1, Histone-lysine N-methyltransferase NSD2 (Homo sapiens, UniProt O96028).
T1 sequence (O96028 whole entry): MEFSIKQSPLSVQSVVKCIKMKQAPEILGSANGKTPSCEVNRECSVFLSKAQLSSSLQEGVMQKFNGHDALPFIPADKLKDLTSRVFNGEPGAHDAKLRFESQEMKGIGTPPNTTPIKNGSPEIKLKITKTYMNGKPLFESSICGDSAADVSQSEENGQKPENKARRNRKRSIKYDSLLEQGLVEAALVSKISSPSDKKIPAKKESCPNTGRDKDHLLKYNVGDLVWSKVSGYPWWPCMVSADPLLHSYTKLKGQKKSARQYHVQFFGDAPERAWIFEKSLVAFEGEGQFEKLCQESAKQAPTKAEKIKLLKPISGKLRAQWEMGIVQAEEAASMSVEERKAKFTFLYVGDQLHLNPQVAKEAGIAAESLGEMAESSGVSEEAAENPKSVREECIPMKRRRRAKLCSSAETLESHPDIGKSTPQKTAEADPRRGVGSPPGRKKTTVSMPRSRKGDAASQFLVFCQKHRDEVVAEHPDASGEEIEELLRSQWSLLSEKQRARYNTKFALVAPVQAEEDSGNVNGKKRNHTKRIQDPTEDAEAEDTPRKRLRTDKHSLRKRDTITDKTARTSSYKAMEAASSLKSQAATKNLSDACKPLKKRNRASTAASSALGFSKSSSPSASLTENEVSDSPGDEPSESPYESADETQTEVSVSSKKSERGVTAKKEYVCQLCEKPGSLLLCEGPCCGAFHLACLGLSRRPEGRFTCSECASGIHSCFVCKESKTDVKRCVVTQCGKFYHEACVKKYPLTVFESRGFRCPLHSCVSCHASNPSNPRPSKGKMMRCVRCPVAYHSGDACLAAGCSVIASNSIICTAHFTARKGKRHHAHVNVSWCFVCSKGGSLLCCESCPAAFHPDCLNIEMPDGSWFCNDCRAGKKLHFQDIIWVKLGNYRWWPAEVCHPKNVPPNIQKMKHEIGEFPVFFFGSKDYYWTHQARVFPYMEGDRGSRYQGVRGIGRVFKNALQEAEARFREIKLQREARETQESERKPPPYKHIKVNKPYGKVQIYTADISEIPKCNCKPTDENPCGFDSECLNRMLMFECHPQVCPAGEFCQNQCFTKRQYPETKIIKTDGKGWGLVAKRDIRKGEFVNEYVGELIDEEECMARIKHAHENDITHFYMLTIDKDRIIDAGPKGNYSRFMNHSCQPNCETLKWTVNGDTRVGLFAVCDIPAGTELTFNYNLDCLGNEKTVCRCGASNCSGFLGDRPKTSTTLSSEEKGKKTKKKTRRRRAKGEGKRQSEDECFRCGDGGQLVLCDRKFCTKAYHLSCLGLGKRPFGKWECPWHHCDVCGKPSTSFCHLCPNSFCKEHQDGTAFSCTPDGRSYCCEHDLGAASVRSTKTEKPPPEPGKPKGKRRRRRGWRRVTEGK
The format is biochemical.

Experiment [3] can be described thus: HEp-2 cell cytotoxicity, dose response, cytotoxicity control for RSV inhibitor project, HTS (AID 2410). The format is functional. The settings on record: human respiratory syncytial virus.
Experiment [4] relates to Vero. As to the kind of experiment: cells. It counts as functional, cell-based. As to conditions: Chlorocebus sabaeus.
A short description of experiment [5]: control 3'UTR Renilla luciferase suppression, dose response, counter-screen for Shn3 inhibitor project, cell-based, Clone20-Shn3RL, cherry-picked (AID 624133). It counts as functional. Background: The purpose of a counterscreen is to sort out artefacts and off-target activity.
Experiment [6] deals with Vero. As to the kind of experiment: cells. It counts as functional. The settings on record: Chlorocebus sabaeus.
Experiment [7] can be described thus: Shn3 3'UTR reporter inhibitors, dose response, cell-based, Clone20 osteoblasts, firefly luciferase, cherry-picked (AID 624132).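 Note: firefly luciferase luminescence from reporter carrying the Shn3 3'UTR in osteoblasts.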 It counts as functional.
In a further experiment the target is Paired box protein Pax-8 (Homo sapiens, UniProt Q06710). Nature of the experiment: inhibitors of PAX8-driven TPO luciferase reporter, dose response, RMG-I cells, cherry-pick (AID 687027).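 Note: luciferase reporter driven by Pax8 target thyroperoxidase promoter measured by SteadyGlo luminescence.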 The format is functional, cell-based. A general note: In a reporter assay the amount or activity of a reporter protein is the signal.
Experiment [8] in a line: inhibitors of clade B AD8 Env fusion, dose response, cell-based, cherry-pick (AID 652062).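 Note: luciferase signal from cell-cell fusion driven by HIV-1 clade B AD8 Env; potency is for inhibitors of fusion seen as a drop in luminescence.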 The format is functional.
The target in another experiment is Estrogen receptor beta (Homo sapiens, UniProt Q92731).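 Note: recombinant ER-beta bound to coactivator SRC1 peptide in presence of estradiol agonist; inhibitors block coactivator peptide binding and lower the FRET signal.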
A further experiment relates to HEK293. As to the kind of experiment: inhibitors of LMP1-driven NF-kB reporter, dose response, cell-based, HEK293, luciferase, cherry-pick (AID 588343). It counts as functional. As to conditions: Homo sapiens.
The target in a further experiment is Cytochrome P450 2C9 (Homo sapiens, UniProt P11712).
A further experiment concerns the target Cytochrome P450 3A4 (Homo sapiens, UniProt P08684).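 Note: CYP3A4 tested as one member of a cytochrome P450 panel screen.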
Another experiment addresses T2, Cytochrome P450 1A2 (Homo sapiens, UniProt P05177).
T2 sequence (P05177 whole entry): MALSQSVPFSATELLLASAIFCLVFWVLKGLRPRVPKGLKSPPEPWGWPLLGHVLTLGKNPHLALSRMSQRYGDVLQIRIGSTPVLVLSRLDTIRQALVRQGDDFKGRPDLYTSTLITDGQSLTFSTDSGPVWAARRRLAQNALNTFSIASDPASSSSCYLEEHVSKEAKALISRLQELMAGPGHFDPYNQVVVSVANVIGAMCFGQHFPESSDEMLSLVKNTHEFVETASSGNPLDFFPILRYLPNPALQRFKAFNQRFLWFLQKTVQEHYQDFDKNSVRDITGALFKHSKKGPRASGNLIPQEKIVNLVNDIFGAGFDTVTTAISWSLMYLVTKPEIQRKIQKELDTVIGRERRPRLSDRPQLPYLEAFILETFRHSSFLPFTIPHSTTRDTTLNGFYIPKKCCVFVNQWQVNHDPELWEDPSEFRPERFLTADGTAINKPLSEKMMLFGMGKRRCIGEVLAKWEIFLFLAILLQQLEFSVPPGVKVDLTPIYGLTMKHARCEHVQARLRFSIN

The target of the next experiment is Large T antigen (Simian virus 40, UniProt P03070). It counts as functional, Betapolyomavirus macacae.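 Note: Confirmatory-stage PubChem screen for compounds that inhibit SV40 T antigen.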
The test system of the next experiment is H9c2. As to the kind of experiment: cells. The format is functional, cell-based. As to conditions: Rattus norvegicus, H9c2, Myocardium.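 Note: confirmatory concentration-response retest of ultra-high-throughput screening hits for modulation of myocardial damage; cell death induced by hydrogen peroxide oxidative stress; compound pretreatment for 60 min then peroxide exposure for 2 h; potency is for protecting the cells against peroxide damage rather than for killing them.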
For experiment [9], the target named is T3, Heat shock factor protein 1 (Mus musculus, UniProt P38532).
T3 sequence (P38532 whole entry): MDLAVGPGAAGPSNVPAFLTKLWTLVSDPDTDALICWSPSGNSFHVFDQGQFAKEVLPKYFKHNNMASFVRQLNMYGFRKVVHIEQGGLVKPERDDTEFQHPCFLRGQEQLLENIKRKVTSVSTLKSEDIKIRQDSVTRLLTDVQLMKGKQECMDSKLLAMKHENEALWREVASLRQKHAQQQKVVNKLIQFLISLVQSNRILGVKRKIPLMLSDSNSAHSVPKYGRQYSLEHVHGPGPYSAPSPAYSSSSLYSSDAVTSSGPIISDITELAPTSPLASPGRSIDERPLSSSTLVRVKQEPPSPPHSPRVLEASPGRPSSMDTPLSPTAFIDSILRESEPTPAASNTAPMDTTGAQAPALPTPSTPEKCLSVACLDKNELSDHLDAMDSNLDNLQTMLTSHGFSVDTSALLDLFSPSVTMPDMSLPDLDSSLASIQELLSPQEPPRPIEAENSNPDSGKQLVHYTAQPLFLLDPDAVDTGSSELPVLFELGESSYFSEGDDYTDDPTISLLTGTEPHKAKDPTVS
Nature of the experiment: HSF1 potentiators in luciferase reporter cells, confirmation, cell-based, NIH3T3, luminescence, dose retest (AID 435004).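 Note: stress induced by proteasome inhibitor MG132 added 30 min after compound; luciferase reporter driven by HSF1 response element in NIH3T3 cells; actives raise luminescence as potentiators of the MG132 stress response.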 The format is functional.

A short description of experiment [10]: inhibitors of HIV Env-driven cell fusion, dose response, cherry-pick (AID 652057). The format is functional, cell-based.
Experiment [11] concerns the target T4, Rac GTPase-activating protein 1 (Homo sapiens, UniProt Q9H0H5).
T4 sequence (Q9H0H5 whole entry): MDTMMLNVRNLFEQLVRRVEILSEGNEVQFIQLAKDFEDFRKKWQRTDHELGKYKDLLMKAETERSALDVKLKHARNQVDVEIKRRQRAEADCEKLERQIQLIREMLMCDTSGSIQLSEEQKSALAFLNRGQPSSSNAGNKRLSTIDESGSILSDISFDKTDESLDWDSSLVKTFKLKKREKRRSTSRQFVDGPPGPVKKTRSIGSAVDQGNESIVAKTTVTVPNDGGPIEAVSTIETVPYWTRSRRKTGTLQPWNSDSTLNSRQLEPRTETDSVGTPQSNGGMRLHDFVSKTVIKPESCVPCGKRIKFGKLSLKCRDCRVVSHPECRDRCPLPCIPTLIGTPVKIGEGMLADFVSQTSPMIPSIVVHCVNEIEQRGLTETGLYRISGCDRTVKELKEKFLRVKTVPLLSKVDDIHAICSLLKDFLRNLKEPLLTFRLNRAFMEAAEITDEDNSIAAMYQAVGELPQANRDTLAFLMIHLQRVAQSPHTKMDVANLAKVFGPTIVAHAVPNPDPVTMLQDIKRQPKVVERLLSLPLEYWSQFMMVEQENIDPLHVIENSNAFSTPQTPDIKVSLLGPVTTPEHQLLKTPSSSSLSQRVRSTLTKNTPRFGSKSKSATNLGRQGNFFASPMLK
Nature of the experiment: MgcRacGAP GTPase-activating activity inhibitors, confirmation, biochemical, ADP Hunter fluorescence, primary and confirmatory (AID 624330). The format is functional.

The values that follow come from ChEMBL document CHEMBL1201862, “PubChem BioAssay data set” (2004).

Molecules are shown by their SMILES. The source made the active and inactive calls. A value given as a limit tells only on which side of the number the result lay.

Sequence of Paired box protein Pax-8 (Q06710 whole entry, the tested form may be a part): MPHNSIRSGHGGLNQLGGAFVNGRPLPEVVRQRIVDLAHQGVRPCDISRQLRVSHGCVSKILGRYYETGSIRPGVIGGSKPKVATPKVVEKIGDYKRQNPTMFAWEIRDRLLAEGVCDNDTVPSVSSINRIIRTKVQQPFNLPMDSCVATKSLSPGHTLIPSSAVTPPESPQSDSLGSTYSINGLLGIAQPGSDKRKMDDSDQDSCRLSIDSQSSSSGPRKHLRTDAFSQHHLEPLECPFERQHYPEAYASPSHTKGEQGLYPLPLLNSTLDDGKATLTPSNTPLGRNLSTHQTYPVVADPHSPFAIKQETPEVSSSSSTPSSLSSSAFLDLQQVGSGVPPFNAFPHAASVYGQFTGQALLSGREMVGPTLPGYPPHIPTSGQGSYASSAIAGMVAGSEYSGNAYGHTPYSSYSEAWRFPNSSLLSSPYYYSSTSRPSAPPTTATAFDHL
Sequence of Large T antigen (P03070 whole entry): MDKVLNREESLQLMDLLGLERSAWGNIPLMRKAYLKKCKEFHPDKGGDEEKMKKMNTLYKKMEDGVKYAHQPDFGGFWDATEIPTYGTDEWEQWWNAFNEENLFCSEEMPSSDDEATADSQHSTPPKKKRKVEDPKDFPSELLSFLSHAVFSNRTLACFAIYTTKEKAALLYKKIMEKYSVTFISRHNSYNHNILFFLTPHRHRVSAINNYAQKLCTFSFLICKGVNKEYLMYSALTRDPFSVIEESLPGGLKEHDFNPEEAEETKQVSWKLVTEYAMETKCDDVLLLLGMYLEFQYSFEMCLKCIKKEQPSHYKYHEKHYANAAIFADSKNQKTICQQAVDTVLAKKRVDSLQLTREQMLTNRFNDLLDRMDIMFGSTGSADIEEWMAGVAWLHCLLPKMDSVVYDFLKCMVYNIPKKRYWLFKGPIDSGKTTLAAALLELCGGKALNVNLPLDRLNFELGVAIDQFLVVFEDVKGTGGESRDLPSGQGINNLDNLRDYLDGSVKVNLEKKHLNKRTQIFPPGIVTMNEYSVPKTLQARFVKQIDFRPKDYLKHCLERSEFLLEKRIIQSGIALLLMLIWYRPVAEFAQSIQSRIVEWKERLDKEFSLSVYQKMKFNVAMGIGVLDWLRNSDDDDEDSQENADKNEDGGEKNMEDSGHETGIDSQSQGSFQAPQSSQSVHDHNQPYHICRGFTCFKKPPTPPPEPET
Sequence of Estrogen receptor beta (Q92731 whole entry): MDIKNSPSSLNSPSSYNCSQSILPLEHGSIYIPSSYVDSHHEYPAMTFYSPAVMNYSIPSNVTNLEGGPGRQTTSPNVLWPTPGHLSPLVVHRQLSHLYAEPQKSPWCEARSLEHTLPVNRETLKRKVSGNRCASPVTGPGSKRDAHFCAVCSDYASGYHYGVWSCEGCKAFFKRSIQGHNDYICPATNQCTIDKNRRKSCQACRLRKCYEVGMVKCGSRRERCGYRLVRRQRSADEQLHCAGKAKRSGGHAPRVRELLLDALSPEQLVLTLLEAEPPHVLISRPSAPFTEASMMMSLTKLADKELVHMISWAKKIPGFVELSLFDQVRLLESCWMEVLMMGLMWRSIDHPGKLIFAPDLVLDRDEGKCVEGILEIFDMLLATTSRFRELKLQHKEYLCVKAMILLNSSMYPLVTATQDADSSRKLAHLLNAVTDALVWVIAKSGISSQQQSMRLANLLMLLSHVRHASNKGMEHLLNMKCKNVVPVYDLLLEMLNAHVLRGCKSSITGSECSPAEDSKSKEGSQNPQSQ
Sequence of Cytochrome P450 2C9 (P11712 whole entry): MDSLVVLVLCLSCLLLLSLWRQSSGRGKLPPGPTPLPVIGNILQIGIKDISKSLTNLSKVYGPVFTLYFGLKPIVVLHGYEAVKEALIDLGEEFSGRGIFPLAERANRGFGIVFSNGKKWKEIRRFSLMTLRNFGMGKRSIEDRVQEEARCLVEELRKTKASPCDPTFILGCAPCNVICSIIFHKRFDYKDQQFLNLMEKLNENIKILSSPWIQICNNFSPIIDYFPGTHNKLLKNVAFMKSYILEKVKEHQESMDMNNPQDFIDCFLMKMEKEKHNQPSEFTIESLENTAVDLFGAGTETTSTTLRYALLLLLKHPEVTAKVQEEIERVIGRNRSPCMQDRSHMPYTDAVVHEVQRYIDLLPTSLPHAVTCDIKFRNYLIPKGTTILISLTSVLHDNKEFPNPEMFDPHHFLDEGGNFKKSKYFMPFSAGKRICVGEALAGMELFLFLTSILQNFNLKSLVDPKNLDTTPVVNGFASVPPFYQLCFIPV
Sequence of Cytochrome P450 3A4 (P08684 whole entry): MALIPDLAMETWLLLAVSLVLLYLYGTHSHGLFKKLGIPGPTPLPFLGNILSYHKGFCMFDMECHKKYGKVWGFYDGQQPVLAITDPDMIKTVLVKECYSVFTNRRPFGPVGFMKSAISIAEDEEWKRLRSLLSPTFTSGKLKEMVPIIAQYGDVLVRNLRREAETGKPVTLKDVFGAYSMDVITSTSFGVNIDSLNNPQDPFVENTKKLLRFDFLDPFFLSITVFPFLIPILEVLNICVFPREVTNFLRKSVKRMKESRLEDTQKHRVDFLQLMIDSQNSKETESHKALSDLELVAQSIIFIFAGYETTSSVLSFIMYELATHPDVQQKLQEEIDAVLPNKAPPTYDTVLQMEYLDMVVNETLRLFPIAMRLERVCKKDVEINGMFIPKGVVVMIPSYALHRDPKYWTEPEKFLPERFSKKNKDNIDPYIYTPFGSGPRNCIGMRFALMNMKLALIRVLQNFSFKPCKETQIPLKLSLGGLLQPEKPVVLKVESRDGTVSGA

For `C[C@H](CO)N1C[C@H](C)[C@H](CN(C)Cc2ccc(C(=O)Nc3ccccc3N)cc2)Oc2ccc(NC(=O)Cc3ccccc3)cc2CC1=O`, the AC50 in experiment [1] was 2.95 µM (active).
Consider `CCN(CC)CCCN(Cc1cc2cc(OC)c(OC)cc2nc1O)C(=O)Nc1ccccc1`, for which the AC50 in [2] is > 20 µM (inactive).
For `C[C@H](CO)N1C[C@H](C)[C@@H](CN(C)Cc2ccncc2)Oc2c(NC(=O)C3CCOCC3)cccc2C1=O`, the AC50 in experiment [1] was 20 µM (inactive).
Still for that read-out and setting: with `Cc1ccc(S(=O)(=O)Nc2cccc3c2O[C@@H](CN(C)S(=O)(=O)c2ccc(Cl)cc2)[C@@H](C)CN([C@H](C)CO)C3=O)cc1` the figure was 8.14 µM (active).
For `COc1ccccc1Nc1nc(-c2cccc([N+](=O)[O-])c2)cs1`, the IC50 in the experiment “cells” is 12.3 µM (active). The CC50 in experiment [3] was 25.1 µM (active).
For `C[C@@H]1CN([C@@H](C)CO)C(=O)c2cccc(NC(=O)CCCCCC(=O)Nc3ccccc3N)c2O[C@H]1CN(C)Cc1ccc2c(c1)OCO2`, in experiment [1], the AC50 was 2.58 µM (active).
As for `CC(C)(O)/C=C/C(=O)C(C)(O)C1C(O)CC2(C)C3CC=C4C(C=C(O)C(=O)C4(C)C)C3(C)C(=O)CC12C` (configuration not stated), in the experiment with Vero [4], the IC50 is > 25 µM (active). In addition, the AC50 in experiment [5] is 4.47 µM (active); in [7] it was 1.83 µM (active); on Paired box protein Pax-8 it was < 0.26 µM (active). The CC50 in the experiment with Vero [6] is 0.08 µM (active).
On to `Cc1ccc(S(=O)(=O)N(C)c2ccc(C(=O)N3CCN(Cc4ccc5c(c4)OCO5)CC3)cc2)cc1`, for which the AC50 in [8] was 14 µM (active).
Turning to `C[C@@H]1CN([C@@H](C)CO)C(=O)c2cccc(NC(=O)Nc3ccc(C(F)(F)F)cc3)c2O[C@@H]1CN(C)S(=O)(=O)c1ccc(F)cc1`, in [1], the AC50 is 4.16 µM (active).
For `CN1CC2(C)CN(C(c3ccccc3)c3ccccc3)CC(C)(C1)C2O` (configuration not stated), on Estrogen receptor beta, the 50% inhibitory concentration (IC50) is > 50 µM (not active).
Regarding `COc1ccc(-c2cc3c(=O)n(CC(=O)NCCCN4CCN(Cc5ccccc5)CC4)ncn3n2)cc1`, the half-maximal activity concentration (AC50) in the experiment with HEK293 was 2.22 µM (active).
With `CC(=N)/C(C#N)=C(/O)COc1ncnc2ccc(Br)cc12`, the AC50 is 11.2 µM (inconclusive) at Cytochrome P450 2C9, 17.8 µM (inconclusive) on Cytochrome P450 3A4 and 0.0316 µM (inconclusive) at Cytochrome P450 1A2. Further, in “cells”, the IC50 is 1.14 µM (active).
Turning to `CC(C)c1ccc(S(=O)(=O)N2CCN(CC(=O)c3ccc(O)c(O)c3)CC2)cc1`, in experiment [2], the AC50 was 4.68 µM (active). The IC50 on Large T antigen is 23.6 µM (active); in the experiment with H9c2, > 79 µM (inactive).
For the molecule `Cc1[nH]c(C)c(S(=O)(=O)N2CCN(c3cccc(Cl)c3)CC2)c1C(=O)N1CCCCC1`, in the experiment “cells”, the IC50 is 31.5 µM (active). Further, the CC50 in [3] is 29.3 µM (active).
For the molecule `COc1ccc(/C=C\c2nc(=O)c3ccccc3o2)cc1`, in the experiment on Vero [4], the IC50 was 19.9 µM (active). Also, the concentration for a half-maximal effect (EC50) in [9] is 20.9 µM (active). Also, the half-maximal cytotoxic concentration (CC50) with Vero [6] is 16.6 µM (active).
In the case of `O=C(C[C@@H]1CC[C@H]2[C@@H](COC[C@@H](O)CN2C(=O)c2ccc(F)cc2)O1)NC1Cc2ccccc2C1`, the AC50 in experiment [10] was 1.62 µM (active); in [8], 3.86 µM (active).
Turning to `CN(C)c1ccc2cc(S(=O)(=O)O)cc(O)c2c1`, the AC50 in experiment [2] is 0.747 µM (active). The IC50 in experiment [11] was 42.9 µM (active).

One may read the AC50 as the concentration giving half of the maximal activity seen. One may read the IC50 as the point on the concentration scale where inhibition reaches its midpoint. The term CC50 denotes the concentration giving 50% cytotoxicity. A word on the EC50: it is the concentration giving half of the maximal effect.
